For 8 molecules, GI50 and TGI results are on record in PubChem BioAssay (NCI).

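Method: 48-hour compound exposure of cells in 96-well plates, five concentrations, linear interpolation of endpoints. GI50 = concentration required for 50% inhibition of growth. TGI: total growth inhibition.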 Bounds are passed on as bounds.

Test systems include UACC-257 melanoma; OVCAR-4 ovarian; RXF 393 renal; A498 renal; T-47D breast; KM12 colon; MALME-3M melanoma; NCI-H522 lung; SK-MEL-2 melanoma; TK-10 renal.
Assay in all cases: NCI tumour cell line growth inhibition, 48 h

On to `Oc1c(Cl)cc(Cl)c2ccc(Cn3cc(-c4cc(C(F)(F)F)cc(C(F)(F)F)c4)nn3)nc12`, for which the GI50 is 1.22 µM with UACC-257 melanoma; 1.27 µM with OVCAR-4 ovarian; 0.555 µM in the assay with RXF 393 renal; 2.6 µM in the assay with A498 renal; 1.67 µM with T-47D breast; 10.5 µM with KM12 colon. Also, the GI50 with MALME-3M melanoma is 1.47 µM; in the assay on NCI-H522 lung it was 1.25 µM; with SK-MEL-2 melanoma, 2.71 µM; in the assay with TK-10 renal, 1.82 µM. Further, the TGI stood at 2.99 µM in the assay on UACC-257 melanoma; 2.75 µM with OVCAR-4 ovarian; 1.97 µM in the assay with RXF 393 renal; 10.8 µM in the assay on A498 renal; 5.55 µM with T-47D breast; 23.4 µM in the assay on KM12 colon. Further, the TGI turned out to be 3.21 µM with MALME-3M melanoma, 3.55 µM in the assay with NCI-H522 lung, 9.56 µM with SK-MEL-2 melanoma and 3.83 µM with TK-10 renal.

Take `CSc1ncc(Br)c(Sc2nc(N)nc3nc[nH]c23)n1`: the GI50 was 3.23 µM in the assay on UACC-257 melanoma; 5.08 µM in the assay with OVCAR-4 ovarian; 2.97 µM in the assay on RXF 393 renal; 3.62 µM in the assay with A498 renal; 1.95 µM with T-47D breast; 3.63 µM in the assay on KM12 colon. The GI50 in the assay with MALME-3M melanoma was 3.34 µM; with NCI-H522 lung, 3.97 µM; in the assay on SK-MEL-2 melanoma it was 1.12 µM; in the assay on TK-10 renal it was 2.45 µM. Moreover, the TGI in the assay with UACC-257 melanoma was 37.9 µM; with OVCAR-4 ovarian, greater than 100 µM; in the assay on RXF 393 renal it was 28.5 µM; with A498 renal it was 29 µM; in the assay on T-47D breast, 21.2 µM; in the assay with KM12 colon it was 22.7 µM. Moreover, the TGI worked out at 18.3 µM with MALME-3M melanoma, 20.3 µM in the assay with NCI-H522 lung, 7.33 µM in the assay with SK-MEL-2 melanoma and 15.8 µM in the assay on TK-10 renal.

In the case of `C=C/C(C)=C/C[C@]1(C)[C@H](C)[C@@H](OC(=O)CCC)[C@H](O)[C@@]23C(=C[C@H](OC)C[C@@H]12)[C@@H](OC(=O)CCC)O[C@H]3OC(C)=O`, the GI50 in the assay on UACC-257 melanoma was 0.854 µM; with OVCAR-4 ovarian, 0.351 µM; in the assay with RXF 393 renal, 0.262 µM; in the assay on A498 renal it was 0.223 µM; in the assay on T-47D breast, 0.36 µM; with KM12 colon, 0.55 µM. In addition, the GI50 was 0.313 µM in the assay on MALME-3M melanoma, 0.239 µM in the assay on NCI-H522 lung, 0.549 µM in the assay with SK-MEL-2 melanoma and 0.181 µM in the assay with TK-10 renal. Also, the TGI in the assay with UACC-257 melanoma is 2.56 µM; in the assay on OVCAR-4 ovarian, 1.34 µM; with RXF 393 renal it was 0.696 µM; in the assay with A498 renal it was 0.645 µM; in the assay with T-47D breast it was 1.71 µM; with KM12 colon, 1.96 µM. In addition, the TGI in the assay on MALME-3M melanoma is 1.03 µM; with NCI-H522 lung, 0.741 µM; in the assay on SK-MEL-2 melanoma it was 2.09 µM; in the assay on TK-10 renal it was 0.411 µM.

For the molecule `O=C(/C=C/c1ccc(O)c(O)c1)NCc1c[nH]c2ccccc12`, the GI50 was greater than 100 µM in the assay with UACC-257 melanoma; greater than 100 µM in the assay with OVCAR-4 ovarian; greater than 100 µM in the assay with RXF 393 renal; 32.4 µM in the assay with A498 renal; greater than 100 µM with T-47D breast; 66.7 µM with KM12 colon. Further, the GI50 in the assay on MALME-3M melanoma was 29.2 µM; in the assay on NCI-H522 lung, 44.9 µM; with TK-10 renal, 18.1 µM. Moreover, the TGI in the assay on UACC-257 melanoma, with OVCAR-4 ovarian, in the assay on RXF 393 renal, in the assay on A498 renal, in the assay with T-47D breast and in the assay with KM12 colon was greater than 100 µM in each case. Besides, the TGI in the assay with MALME-3M melanoma, in the assay with NCI-H522 lung and in the assay on TK-10 renal was greater than 100 µM in each case.

Turning to `CN1CCN(Cc2ccc(NC(=O)c3cncc(C#Cc4cnc(N)cc4C#N)c3)cc2C(F)(F)F)CC1`, the GI50 in the assay with UACC-257 melanoma is 3.24 µM; in the assay on RXF 393 renal it was 1.45 µM; in the assay with A498 renal it was 0.227 µM; in the assay on T-47D breast, 4.42 µM; in the assay on KM12 colon it was 0.0632 µM; in the assay with MALME-3M melanoma, 0.264 µM. The GI50 in the assay on NCI-H522 lung is 3.69 µM; in the assay on SK-MEL-2 melanoma, 1.15 µM; in the assay with TK-10 renal, 4.92 µM. Moreover, the TGI in the assay on UACC-257 melanoma worked out at 15.4 µM; in the assay with RXF 393 renal, 5.55 µM; in the assay with A498 renal it was 3.67 µM; with T-47D breast, 21.1 µM; in the assay on KM12 colon it was 13.3 µM; with MALME-3M melanoma, 0.943 µM. The results for the TGI in the assay with NCI-H522 lung, in the assay with SK-MEL-2 melanoma and with TK-10 renal were 17.7 µM, 3.44 µM and 17.5 µM, respectively.

With `NCCCCC1NC(=O)C(CC(=O)O)NC(=O)CNC(=O)C(CCCN=C(N)N)NC(=O)C(N)CSSCC(C(=O)O)NC(=O)C(CC(=O)O)NC(=O)C2CCCN2C(=O)CNC1=O` (stereo not given), the GI50 with OVCAR-4 ovarian, with RXF 393 renal, in the assay on A498 renal, in the assay with T-47D breast, in the assay on KM12 colon and with MALME-3M melanoma was greater than 100 µM each time. The GI50 with NCI-H522 lung, in the assay on SK-MEL-2 melanoma and in the assay on TK-10 renal was greater than 100 µM in each case. Further, the TGI in the assay on OVCAR-4 ovarian, in the assay with RXF 393 renal, in the assay with A498 renal, in the assay with T-47D breast, in the assay on KM12 colon and with MALME-3M melanoma was greater than 100 µM in each case. Moreover, the TGI in the assay on NCI-H522 lung, in the assay with SK-MEL-2 melanoma and in the assay on TK-10 renal was greater than 100 µM each time.

Turning to `CCN1CCN(Cc2ccc(NC(=O)Nc3nc4ccc(Oc5ccnc(C(=O)NC)c5)cc4s3)cc2C(F)(F)F)CC1`, the GI50 in the assay on UACC-257 melanoma is 1.86 µM; in the assay on RXF 393 renal, 1.67 µM; with A498 renal, 1.83 µM; in the assay on T-47D breast, 1.99 µM; with KM12 colon, 0.019 µM; in the assay on MALME-3M melanoma, 1.2 µM. Further, the GI50 with NCI-H522 lung is 1.68 µM; in the assay on SK-MEL-2 melanoma, 1.75 µM; in the assay on TK-10 renal it was 2.5 µM. Besides, the TGI in the assay on UACC-257 melanoma came to 3.51 µM; in the assay on RXF 393 renal it was 3.13 µM; in the assay with A498 renal it was 3.54 µM; with T-47D breast, 4.25 µM; with KM12 colon, 1.63 µM; with MALME-3M melanoma, 2.67 µM. Besides, the TGI in the assay on NCI-H522 lung was 3.59 µM; in the assay with SK-MEL-2 melanoma, 3.51 µM; in the assay on TK-10 renal, 4.54 µM.

In the case of `O=[N+]([O-])c1cccc(-c2nc(-c3ccccc3)c(-c3ccccc3)[nH]2)c1`, the TGI in the assay with UACC-257 melanoma, in the assay with RXF 393 renal, with A498 renal, with T-47D breast, with MALME-3M melanoma and with NCI-H522 lung was greater than 100 µM in each case. For the same molecule, the TGI in the assay on SK-MEL-2 melanoma and in the assay on TK-10 renal was greater than 100 µM in each case.
